Source: patent publication US8114393B2, “Methods and compositions for phosphate binding” (Wisconsin Alumni Research Foundation, priority 2005, dated 2012)

How the values were obtained:
[1] = test system: Intestinal Phosphate Absorption; test: Intestinal phosphate absorption: oral 33P dose after gavage of phosphate binder; format: in vivo, rats
Procedure: (§1) Animals. Male Sprague-Dawley rats (Harlan Sprague-Dawley, Madison, Wis.) weighing approximately 120 grams were used in all experiments.
In experiments to measure ^33P absorption, the rats were fed a laboratory chow diet (Lab Diet 5012, Richmond, Ind.) containing 1% calcium and 0.7% phosphorus ad libitum for less than one week prior to the experiment.
Intestinal Phosphate Absorption. Following an overnight fast, rats were administered 0.5 mL water or an oral phosphate binder dissolved in water via gastric gavage. A second dose of 0.5 mL containing 3 μCi ^33P (as H3PO4, specific activity 155.8 Ci/mg, New England Nuclear/Perkin Elmer, Boston, Mass.) in a 10, 50, or 100 mM KH2PO4 buffer at pH 7.4 was immediately administered via gastric gavage. Rats were killed by CO2 asphyxiation immediately or 60 minutes after the oral dose. The rats killed immediately (labeled “0 min control” in figures) were used to determine if the oral ^33P dose was properly administered and completely recovered.
Blood was collected via heart puncture and centrifuged at 1500×g for 15 minutes at 22° C. to yield serum. A suture was tied to the cranial end of the esophagus to contain liquid inside the stomach. The entire digestive tract was then removed and allowed to dissolve for several days in concentrated HNO3 (approximately 1 mL HNO3 per gram tissue). The exact volume of the dissolved digestive tract was determined by diluting the dissolved tissues to equal volumes with water.
The amount of radioactivity in total body serum and total volume of dissolved tissue was determined following liquid scintillation counting of 50 μL aliquots in triplicate (Tri-Carb Liquid Scintillation Analyzer, Perkin-Elmer/Packard, Boston, Mass.). Total body serum was estimated to be 40 mL serum/kg body weight. (Hawk T et al., 1999, Formulary for laboratory animals, Ames, Iowa: Iowa State University Press.)
(§2) Statistical analysis. Data are presented as means±standard error of the means (SEM). Treatment groups were compared by a fully factorial analysis of variance (ANOVA) and means were subjected to Tukey, Scheffe, and Fisher's Least-Significant-Difference (LSD) tests (Systat 5.2.1, Systat Software, Inc., Point Richmond, Calif.). Differences were considered significant if at least two of the tests detected significance with a p-value <0.05, unless specified otherwise.
Materials and Methods. The relevant materials and methods were the same as set forth above except that instead of using “0.5 mL of water or 39.5 mg calcium acetate, 14.4 mg RENAGEL, or up to 132.8 mg of test dendrimer,” the following was used “0.5 mL of water, 14.4 mg RENAGEL or 10 mg DAB-8 as the hydroacetate or hydrocitrate form dissolved in water.”

[2] = test system: intestinal phosphorus absorption; test: Fecal phosphorus content, increasing dietary levels of DAB-8 hydroacetate for three weeks; format: in vivo, rats
Description: Materials and Methods. Young male Sprague-Dawley rats weighing approximately 90 g were fed a purified diet containing 0.47% calcium and 0.2% inorganic phosphorus, solidified with molten agar, for 5 days. After this acclimation period, the rats were divided into 5 groups by body weight. One group remained on the control diet while the other 4 groups were fed diets containing increasing levels of DAB-8 in the hydroacetate salt form (0.09 to 0.7%). After 1, 2 and 3 weeks on the diets, the rats were moved to metabolic caging and 24 to 48 hour fecal collections were obtained. The feces were dried then ashed in a muffle oven at 700° C. for 24 hours. The resulting ash was dissolved in 6N HCl and the phosphorus content was measured using an in-house colorimetric assay.
Data are expressed as means±SEM. Data were subjected to analysis of variance (ANOVA), and group means compared using Tukey, Scheffe and Fisher's LSD test.
Young rats were either control diet (“0”), or the same diet containing one of four levels of DAB-8 as the hydroacetate for three weeks. Feces were collected from the rats using metabolic housing for 24 to 48 hours at the end of the first (week 1), second (week 2) or third (week 3) weeks. Feces was dried, then ashed in a muffle oven. Resulting ash was dissolved in 6N HCl. Phosphorus content was determined using an in-house colorimetric assay. *Indicates significant difference from control diet with a p-value of […].

[3] = test system: Intestinal Phosphate Absorption; test: Fecal calcium and phosphorus measurements, binder in purified diet; format: in vivo, rats
Description: as §1
In experiments to measure fecal calcium and phosphorus levels, rats were fed purified diet described previously for 9 days. (Suda T et al., Biological activity of 25-hydroxyergocalciferol in rats, J Nutr 1970, 100:1049-1052). This diet was mixed with egg white protein (Harlan Teklad, Madison, Wis.) and contained 0.20% inorganic phosphorus and 0.47% calcium. The purified diet was supplemented with 100 μL soybean oil (Wesson oil, ConAgra Foods, Irvine, Calif.) containing 500 μg α-tocopherol, 60 μg menadione, 40 μg β-carotene, and 1.875 μg cholecalciferol three times each week.
Fecal calcium and phosphorus measurements. Rats were fed the purified diet described above or the same diet with 1.2% calcium, 0.15% Renagel®, or 0.15% DAB-4, DAB-8, or DAB-16 for 7 days. Rats were then moved to metabolic cages and fecal matter was collected for 48 hours. Fecal samples were frozen, lyophilized, and heated to over 600° C. overnight in a muffle oven. Remaining ash was then dissolved overnight in 25 mL 6 N HCl. The calcium concentration of the acid was determined by flame atomic absorption spectroscopy (Model 3110, Perkin Elmer, Norwalk, Conn.) using an aliquot of the dissolved ash diluted 1:40 with 1 g/L LaCl3. The phosphorus concentration of an aliquot of the dissolved ash was determined by a colorimetric assay described previously. (Itaya K et al., A new micromethod for the colorimetric determination of inorganic phosphate, Clin Chim Acta 1966, 14:361-366).
as §2

rats = test: Oral tolerability of DAB dendrimers fed in the diet; format: in vivo; settings: as hydrochlorides
Description: Unfortunately, little is known regarding the toxicity of DAB dendrimers when administered orally. Previous research has shown DAB dendrimers to be cytotoxic in vitro (Duncan R et al., Dendrimer biocompatibility and toxicity, Adv Drug Deliv Rev 2005, 57:2215-2237) and when administered intravenously, the DAB dendrimers are lethal. (Schatzlein A G et al., Preferential liver gene expression with polypropylenimine dendrimers, J Control Release 2005, 101:247-258). In our experiments, however, the DAB dendrimers were well tolerated by rats when administered orally.

[4] = 14.4 mg Renagel or 10 mg DAB-8 as acetate or citrate, 10 mM KH2PO4, 60 min
[5] = 10 mM KH2PO4, 60 min, listed as DAB-16-Cl
[6] = 10 mg calcium, 14.4 mg Renagel or novel binder (Table 1), 10 mM KH2PO4, 60 min
[7] = two highest levels of DAB-8 and DAB-16, highest level of DAB-64, vs 14.4 mg Renagel

Polypropylenimine octaamine Dendrimer decahydroacetate [DAB-8 as acetate]
33P in the serum compared with vehicle pretreatment (FIG. 26) [1, 4]: significantly less | 33P retained in the gut compared with vehicle pretreatment (FIG. 25) [1, 4]: significantly more | fecal phosphorus content versus control diet, first 2 weeks on the diet ([2]; all four levels of the phosphate binder (0.09 to 0.7%)): significant increase | fecal phosphorus output ([2]; daily consumption, 0.09 to 0.7% of diet): dose-dependent increase | dietary phosphorus absorption in vivo ([2]; inferred from fecal phosphorus, 0.09 to 0.7% of diet): dose-dependent reduction | fecal phosphorus content versus control diet, week 3 ([2]; only the highest dietary level): retains significance

Polypropylenimine hexadecaamine Dendrimer perhydrochloride [DAB-16]
33P retained in the digestive tract versus DAB-4 at an equivalent amount of free amino groups (FIG. 5A) ([1]; 10 mM KH2PO4, 60 min): bound significantly more | 33P retained in the digestive tract versus DAB-8 at equimolar amounts (FIG. 5A) ([1]; 10 mM KH2PO4, 60 min): retained significantly more | amount of 33P remaining in the digestive tract compared to a comparable amount of Renagel (FIG. 3A) ([1]; 10 mM KH2PO4, 60 min): bound significantly more | serum 33P levels compared to a comparable amount of Renagel (FIG. 3B) ([1]; 10 mM KH2PO4, 60 min): significantly reduced | 33P retained in the digestive tract versus DAB-8 at equimolar amounts (FIG. 5A) [1, 5]: significantly more | amount of 33P remaining in the digestive tract compared to a comparable amount of Renagel (FIG. 3A) [1, 5]: significantly increased | amount of 33P remaining in the digestive tract compared with water (FIG. 3A) [1, 6]: significantly increased | serum 33P levels compared with water (FIG. 3B) [1, 6]: significantly reduced | serum 33P levels compared with water, mechanism study (FIG. 5B) ([1]; 13.9 mg, the only level of binder with significant effect): significantly reduce | 33P remaining in the intestine compared to Renagel, dose response study (FIG. 4A) [1, 7]: significantly increased | serum 33P levels compared to Renagel, dose response study (FIG. 4B) [1, 7]: significantly reduced | mg P per gram feces ([3]; 0.15% of diet for 7 days, 48 h fecal collection, mean ± SEM, control 3.79 ± 0.18): 4.78 ± 0.30 mg P per gram feces | fecal phosphorus levels versus control diet or diet with 0.15% Renagel ([3]; 0.15% of diet, DAB-8 and DAB-16 significant by Fisher's LSD test only): significantly increased | increase in fecal phosphorus versus the increase from excess calcium or an equivalent amount of Renagel ([3]; 0.15% of diet, Fisher's LSD test only): significantly higher | tolerability in rats (rats; 0.15% of the diet): tolerated | tolerability in rats, observation (rats; 0.3% or 0.6% of the diet, after 5 days (data not shown)): only softened stool was observed
